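48-hour exposure; five concentrations; linearly interpolated endpoints. Here, GI50 denotes the concentration required for 50% inhibition of growth.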 The source made the active and inactive calls. No stated cut-off is given here; in the data, active = GI50 up to about 1.1 µM and inactive = higher.
Experiments:
Assay in all cases: inhibition of tumour cell growth, NCI panel, 48 h
HL-60 = test system: HL-60
HCT-15 = test system: HCT-15
MOLT-4 = test system: MOLT-4
IGROV-1 = test system: IGROV-1
CAKI-1 = test system: CAKI-1
SF-295 = test system: SF-295
UO-31 = test system: UO-31
RPMI-8226 = test system: RPMI-8226
NCI-H522 = test system: NCI-H522
NCI-H226 = test system: NCI-H226
SN12C = test system: SN12C
SK-MEL-28 = test system: SK-MEL-28
OVCAR-8 = test system: OVCAR-8
EKVX = test system: EKVX
SF-268 = test system: SF-268
UACC-62 = test system: UACC-62
COLO 205 = test system: COLO 205
HCC 2998 = test system: HCC 2998
NCI-H460 = test system: NCI-H460
SK-MEL-5 = test system: SK-MEL-5

c1ccc2cc(-c3cc(-c4cc(-c5ccc6ccccc6c5)on4)no3)ccc2c1
GI50 (HL-60): > 100 µM (inactive)
GI50 (HCT-15): > 100 µM
GI50 (MOLT-4): 88.9 µM (inactive)
GI50 (IGROV-1): > 100 µM (inactive)
GI50 (CAKI-1): > 100 µM (inactive)
GI50 (SF-295): > 100 µM (inactive)
GI50 (UO-31): 96.8 µM (inactive)
GI50 (RPMI-8226): > 100 µM (inactive)
GI50 (NCI-H522): > 100 µM (inactive)
GI50 (NCI-H226): > 100 µM (inactive)
GI50 (SN12C): > 100 µM (inactive)
GI50 (SK-MEL-28): > 100 µM (inactive)
GI50 (OVCAR-8): > 100 µM (inactive)
GI50 (EKVX): 11.7 µM (inactive)
GI50 (SF-268): > 100 µM (inactive)
GI50 (UACC-62): > 100 µM (inactive)
GI50 (COLO 205): > 100 µM (inactive)
GI50 (HCC 2998): 99.1 µM (inactive)
GI50 (NCI-H460): > 100 µM (inactive)
GI50 (SK-MEL-5): > 100 µM (inactive)

Nc1ccc(S(=O)(=O)c2ccc(NC(=O)c3cccnc3)cc2)cc1
GI50 (HL-60): 45.1 µM (inactive)
GI50 (HCT-15): > 100 µM
GI50 (MOLT-4): 57.5 µM (inactive)
GI50 (IGROV-1): > 100 µM (inactive)
GI50 (CAKI-1): > 100 µM (inactive)
GI50 (SF-295): > 100 µM (inactive)
GI50 (UO-31): > 100 µM (inactive)
GI50 (RPMI-8226): 36.6 µM (inactive)
GI50 (NCI-H522): 53.2 µM (inactive)
GI50 (NCI-H226): > 100 µM (inactive)
GI50 (SN12C): > 100 µM (inactive)
GI50 (SK-MEL-28): > 100 µM (inactive)
GI50 (OVCAR-8): > 100 µM (inactive)
GI50 (EKVX): 64.9 µM (inactive)
GI50 (SF-268): > 100 µM (inactive)
GI50 (UACC-62): > 100 µM (inactive)
GI50 (COLO 205): > 100 µM (inactive)
GI50 (HCC 2998): > 100 µM (inactive)
GI50 (NCI-H460): > 100 µM (inactive)
GI50 (SK-MEL-5): 42.4 µM (inactive)

Nc1ccc(S(=O)(=O)Nc2nc3ccccc3nc2N2CCCCCC2)cc1
GI50 (HL-60): 19.1 µM (inactive)
GI50 (HCT-15): 23.9 µM
GI50 (MOLT-4): 16 µM (inactive)
GI50 (IGROV-1): 34.4 µM (inactive)
GI50 (CAKI-1): 26.4 µM (inactive)
GI50 (SF-295): 22.9 µM (inactive)
GI50 (UO-31): 13.2 µM (inactive)
GI50 (RPMI-8226): 14.6 µM (inactive)
GI50 (NCI-H522): 29 µM (inactive)
GI50 (NCI-H226): 34.7 µM (inactive)
GI50 (SN12C): 11 µM (inactive)
GI50 (SK-MEL-28): 18.5 µM (inactive)
GI50 (OVCAR-8): 31.9 µM (inactive)
GI50 (EKVX): 40.3 µM (inactive)
GI50 (SF-268): 45.9 µM (inactive)
GI50 (UACC-62): 18.1 µM (inactive)
GI50 (COLO 205): 16.6 µM (inactive)
GI50 (HCC 2998): 16.6 µM (inactive)
GI50 (NCI-H460): 23.4 µM (inactive)
GI50 (SK-MEL-5): 16.1 µM (inactive)

CCC/C(=N\NC(=O)c1cc2ccccc2cc1O)C(CC)C(=O)CCC(=O)N(Cc1ccccc1)Cc1ccccc1 (stereo not given)
GI50 (HL-60): 13 µM (inactive)
GI50 (HCT-15): 38.4 µM
GI50 (MOLT-4): 30.7 µM (inactive)
GI50 (IGROV-1): 34.5 µM (inactive)
GI50 (CAKI-1): 46 µM (inactive)
GI50 (SF-295): 33.9 µM (inactive)
GI50 (UO-31): 54 µM (inactive)
GI50 (RPMI-8226): 45.8 µM (inactive)
GI50 (NCI-H522): 39.1 µM (inactive)
GI50 (NCI-H226): 47.3 µM (inactive)
GI50 (SN12C): 63.2 µM (inactive)
GI50 (SK-MEL-28): > 100 µM (inactive)
GI50 (OVCAR-8): 49.9 µM (inactive)
GI50 (EKVX): 32 µM (inactive)
GI50 (SF-268): 19.7 µM (inactive)
GI50 (UACC-62): 11.2 µM (inactive)
GI50 (COLO 205): 28.5 µM (inactive)
GI50 (HCC 2998): 67.5 µM (inactive)
GI50 (NCI-H460): 35.6 µM (inactive)
GI50 (SK-MEL-5): 23.4 µM (inactive)

Cc1nc(-c2cccnc2)sc1C(=O)/C=C/c1cccc([N+](=O)[O-])c1
GI50 (HL-60): > 100 µM (inactive)
GI50 (HCT-15): > 100 µM
GI50 (MOLT-4): > 100 µM (inactive)
GI50 (IGROV-1): > 100 µM (inactive)
GI50 (CAKI-1): > 100 µM (inactive)
GI50 (SF-295): > 100 µM (inactive)
GI50 (UO-31): > 100 µM (inactive)
GI50 (RPMI-8226): > 100 µM (inactive)
GI50 (NCI-H522): > 100 µM (inactive)
GI50 (NCI-H226): > 100 µM (inactive)
GI50 (SN12C): > 100 µM (inactive)
GI50 (SK-MEL-28): > 100 µM (inactive)
GI50 (OVCAR-8): > 100 µM (inactive)
GI50 (EKVX): > 100 µM (inactive)
GI50 (SF-268): > 100 µM (inactive)
GI50 (UACC-62): > 100 µM (inactive)
GI50 (COLO 205): > 100 µM (inactive)
GI50 (HCC 2998): > 100 µM (inactive)
GI50 (NCI-H460): > 100 µM (inactive)
GI50 (SK-MEL-5): > 100 µM (inactive)
